Legend:
Assay type in all cases: in vivo
Plutella xylostella = test: Pesticidal test against Plutella xylostella (cabbage leaf dip); conditions: foliar, 144 h, 2-stage larvae, examined after 6 days, 25° C., read-out: pesticidal rate; for pest or weed control at 1 ppm: concentration 1 ppm; for pest or weed control at 10 ppm: concentration 10 ppm
Procedure: (§1) Pesticidal Test against Plutella xylostella A piece of a cabbage leaf was immersed for 30 seconds in a chemical solution in which a test compound had been prepared at a predetermined concentration, and air-dried, and then put into a 7 cm polyethylene cup having a filter paper laid on the bottom thereof, and 2-stage larvae of Plutella xylostella were released. They were left to stand in a thermostatic chamber at 25° C., and the numbers of the living pests and the dead pests were examined after 6 days. The test was carried out with five larvae per group in two replicates. Further, the above compound (A) was used as a comparative compound.

Laodelphax striatellus = test: Pesticidal test against Laodelphax striatellus (rice seedling spray); conditions: 144 h, concentration 100 ppm, 3-stage larvae, examined after 6 days, 25° C., read-out: pesticidal rate
Procedure: Pesticidal Test against Laodelphax striatellus
2.5 ml of an acetone solution in which a test compound had been prepared at a predetermined concentration was sprayed on rice seedlings, air-dried, and then put into a glass tube having a diameter of 3 cm and a height of 13 cm, having water therein, and 3-stage larvae of Laodelphax striatellus were released and the tube was capped. They were left to stand in a thermostatic chamber at 25° C., and the numbers of the living pests and the dead pests were examined after 6 days. The test was carried out with ten larvae per group in two replicates.

Spodoptera litura = test: Pesticidal test against Spodoptera litura (cabbage leaf dip); conditions: foliar, 144 h, 2-stage larvae, examined after 6 days, 25° C., read-out: pesticidal rate; for pest or weed control at 1 ppm: concentration 1 ppm
Procedure: as §1, with “Spodoptera litura” for “Plutella xylostella”, “following” for “above”, “(A) disclosed in the pamphlet of International Publication WO 2005/073165” for “(A)”

O=C(Nc1cccc(C(=O)Nc2c(Br)cc(C(F)(C(F)(F)F)C(F)(F)C(F)(F)F)cc2Br)c1F)c1ccc(F)cc1 (stereo not drawn) [6-1185]
≥ 70%: pest or weed control at 1 ppm (Plutella xylostella) | pest or weed control at 100 ppm (Laodelphax striatellus) | pest or weed control at 1 ppm (Spodoptera litura)

N#Cc1ccc(C(=O)Nc2cccc(C(=O)Nc3c(Br)cc(C(F)(C(F)(F)F)C(F)(F)C(F)(F)F)cc3Br)c2F)cc1 (stereo not drawn) [6-1203]
≥ 70%: pest or weed control at 1 ppm (Plutella xylostella) | pest or weed control at 100 ppm (Laodelphax striatellus) | pest or weed control at 1 ppm (Spodoptera litura)

O=C(Nc1cccc(C(=O)Nc2c(Br)cc(C(F)(C(F)(F)F)C(F)(F)C(F)(F)F)cc2Br)c1F)c1ccc(Cl)nc1 (stereo not drawn) [6-1225]
≥ 70%: pest or weed control at 1 ppm (Plutella xylostella) | pest or weed control at 100 ppm (Laodelphax striatellus) | pest or weed control at 1 ppm (Spodoptera litura)

O=C(Nc1cccc(C(=O)Nc2c(I)cc(C(F)(C(F)(F)F)C(F)(F)F)cc2I)c1F)c1ccccc1F [6-1261]
≥ 70%: pest or weed control at 1 ppm (Plutella xylostella) | pest or weed control at 100 ppm (Laodelphax striatellus) | pest or weed control at 1 ppm (Spodoptera litura)

O=C(Nc1c(I)cc(C(F)(C(F)(F)F)C(F)(F)F)cc1I)c1cccc(NC(=O)c2c(F)cccc2F)c1F [6-1282]
≥ 70%: pest or weed control at 1 ppm (Plutella xylostella) | pest or weed control at 100 ppm (Laodelphax striatellus) | pest or weed control at 1 ppm (Spodoptera litura)

O=C(Nc1cccc(C(=O)Nc2c(I)cc(C(F)(C(F)(F)F)C(F)(F)F)cc2I)c1F)c1ccc(Cl)nc1 [6-1303]
≥ 70%: pest or weed control at 1 ppm (Plutella xylostella) | pest or weed control at 100 ppm (Laodelphax striatellus) | pest or weed control at 1 ppm (Spodoptera litura)

O=C(Nc1cccc(C(=O)Nc2c(I)cc(C(F)(C(F)(F)F)C(F)(F)C(F)(F)F)cc2I)c1F)c1ccccc1F (stereo not drawn) [6-1339]
≥ 70%: pest or weed control at 1 ppm (Plutella xylostella) | pest or weed control at 100 ppm (Laodelphax striatellus) | pest or weed control at 1 ppm (Spodoptera litura)

O=C(Nc1cccc(C(=O)Nc2c(I)cc(C(F)(C(F)(F)F)C(F)(F)C(F)(F)F)cc2I)c1F)c1cccc(F)c1 (stereo not drawn) [6-1340]
≥ 70%: pest or weed control at 1 ppm (Plutella xylostella) | pest or weed control at 100 ppm (Laodelphax striatellus) | pest or weed control at 1 ppm (Spodoptera litura)

O=C(Nc1cccc(C(=O)Nc2c(I)cc(C(F)(C(F)(F)F)C(F)(F)C(F)(F)F)cc2I)c1F)c1ccc(Cl)nc1 (stereo not drawn) [6-1381]
≥ 70%: pest or weed control at 1 ppm (Plutella xylostella) | pest or weed control at 100 ppm (Laodelphax striatellus) | pest or weed control at 1 ppm (Spodoptera litura)

O=C(Nc1cccc(C(=O)Nc2c(Br)cc(C(F)(C(F)(F)F)C(F)(F)C(F)(F)F)cc2C(F)(F)F)c1F)c1ccccc1F (stereo not drawn) [6-1653]
≥ 70%: pest or weed control at 1 ppm (Plutella xylostella) | pest or weed control at 100 ppm (Laodelphax striatellus) | pest or weed control at 1 ppm (Spodoptera litura)

O=C(Nc1cccc(C(=O)Nc2c(I)cc(C(F)(C(F)(F)F)C(F)(F)F)cc2C(F)(F)F)c1F)c1ccc(Cl)cc1Cl [6-1754]
≥ 70%: pest or weed control at 1 ppm (Plutella xylostella) | pest or weed control at 100 ppm (Laodelphax striatellus) | pest or weed control at 1 ppm (Spodoptera litura)

O=C(Nc1cccc(C(=O)Nc2c(I)cc(C(F)(C(F)(F)F)C(F)(F)F)cc2C(F)(F)F)c1F)c1cccnc1Cl [6-1766]
≥ 70%: pest or weed control at 1 ppm (Plutella xylostella) | pest or weed control at 100 ppm (Laodelphax striatellus) | pest or weed control at 1 ppm (Spodoptera litura)

O=C(Nc1cc(C(=O)Nc2c(Br)cc(C(F)(C(F)(F)F)C(F)(F)F)cc2C(F)(F)F)ccc1F)c1ccccc1 [6-3348, 3-benzamide-N-(2-bromo-4-(perfluoropropan-2-yl)-6-(trifluoromethyl)phenyl)-4-fluorobenzamide]
≥ 70%: pest or weed control at 1 ppm (Plutella xylostella) | pest or weed control at 100 ppm (Laodelphax striatellus) | pest or weed control at 1 ppm (Spodoptera litura)

O=C(Nc1c(Br)cc(C(F)(C(F)(F)F)C(F)(F)F)cc1C(F)(F)F)c1ccc(F)c(NC(=O)c2cccnc2Cl)c1 [6-3384]
≥ 70%: pest or weed control at 1 ppm (Plutella xylostella) | pest or weed control at 100 ppm (Laodelphax striatellus) | pest or weed control at 1 ppm (Spodoptera litura)

O=C(Nc1cccc(C(=O)Nc2c(I)cc(C(F)(C(F)(F)F)C(F)(F)C(F)(F)F)cc2I)c1)c1cccc(F)c1 (stereo not drawn) [6-5903]
≥ 70%: pest or weed control at 1 ppm (Plutella xylostella) | pest or weed control at 100 ppm (Laodelphax striatellus) | pest or weed control at 1 ppm (Spodoptera litura)

O=C(Nc1cccc(C(=O)Nc2c(I)cc(C(F)(C(F)(F)F)C(F)(F)C(F)(F)F)cc2I)c1)c1ccc(F)cc1 (stereo not drawn) [6-5904]
≥ 70%: pest or weed control at 1 ppm (Plutella xylostella) | pest or weed control at 100 ppm (Laodelphax striatellus) | pest or weed control at 1 ppm (Spodoptera litura)

O=C(Nc1cccc(C(=O)Nc2c(Br)cc(C(F)(C(F)(F)F)C(F)(F)C(F)(F)F)cc2Br)c1)c1ccc(F)cc1 (stereo not drawn) [6-5906]
≥ 70%: pest or weed control at 1 ppm (Plutella xylostella) | pest or weed control at 100 ppm (Laodelphax striatellus) | pest or weed control at 1 ppm (Spodoptera litura)

O=C(Nc1cccc(C(=O)Nc2c(Br)cc(C(F)(C(F)(F)F)C(F)(F)F)cc2OC(F)(F)F)c1F)c1ccccc1 [6-5907]
≥ 70%: pest or weed control at 1 ppm (Plutella xylostella) | pest or weed control at 100 ppm (Laodelphax striatellus) | pest or weed control at 1 ppm (Spodoptera litura)

O=C(Nc1cccc(C(=O)Nc2c(Br)cc(C(F)(C(F)(F)F)C(F)(F)F)cc2OC(F)(F)F)c1F)c1cccnc1Cl [6-5908, N-(3-(2-bromo-4-(perfluoropropan-2-yl)-6-(trifluoromethoxy)phenylcarbamoyl)-2-fluorophenyl)-2-chloronicotinamide]
≥ 70%: pest or weed control at 1 ppm (Plutella xylostella) | pest or weed control at 100 ppm (Laodelphax striatellus) | pest or weed control at 1 ppm (Spodoptera litura)

N#Cc1ccc(C(=O)Nc2cccc(C(=O)Nc3c(Br)cc(C(F)(C(F)(F)F)C(F)(F)F)cc3OC(F)(F)F)c2F)cc1 [6-5909]
≥ 70%: pest or weed control at 1 ppm (Plutella xylostella) | pest or weed control at 100 ppm (Laodelphax striatellus) | pest or weed control at 1 ppm (Spodoptera litura)

O=C(Nc1cccc(C(=O)Nc2c(Br)cc(C(F)(C(F)(F)F)C(F)(F)F)cc2C(F)(F)C(F)(F)F)c1F)c1ccccc1 [6-5910]
≥ 70%: pest or weed control at 1 ppm (Plutella xylostella) | pest or weed control at 100 ppm (Laodelphax striatellus) | pest or weed control at 1 ppm (Spodoptera litura)

N#Cc1ccc(C(=O)Nc2cccc(C(=O)Nc3c(Br)cc(C(F)(C(F)(F)F)C(F)(F)F)cc3C(F)(F)C(F)(F)F)c2F)cc1 [6-5911, N-(2-bromo-6-(perfluoroethyl)-4-(perfluoropropan-2-yl)phenyl)-3-(4-cyanobenzamide)-2-fluorobenzamide]
≥ 70%: pest or weed control at 1 ppm (Plutella xylostella) | pest or weed control at 100 ppm (Laodelphax striatellus) | pest or weed control at 1 ppm (Spodoptera litura)

O=C(Nc1c(Br)cc(C(F)(F)C(F)(F)F)cc1C(F)(F)F)c1cccc(NC(=O)c2cccnc2Cl)c1 [6-5914]
≥ 70%: pest or weed control at 10 ppm (Plutella xylostella) | pest or weed control at 100 ppm (Laodelphax striatellus) | pest or weed control at 10 ppm (Spodoptera litura; concentration 10 ppm)

CN(C(=O)c1c(F)cccc1F)c1cccc(C(=O)Nc2c(Br)cc(C(F)(C(F)(F)F)C(F)(F)C(F)(F)F)cc2Br)c1 (stereo not drawn) [7-47]
≥ 70%: pest or weed control at 1 ppm (Plutella xylostella) | pest or weed control at 100 ppm (Laodelphax striatellus) | pest or weed control at 1 ppm (Spodoptera litura)

CN(C(=O)c1cccc([N+](=O)[O-])c1)c1cccc(C(=O)Nc2c(Br)cc(C(F)(C(F)(F)F)C(F)(F)F)cc2C(F)(F)F)c1 [7-285]
≥ 70%: pest or weed control at 10 ppm (Plutella xylostella) | pest or weed control at 100 ppm (Laodelphax striatellus) | pest or weed control at 1 ppm (Spodoptera litura)

CN(C(=O)c1ccc([N+](=O)[O-])cc1)c1cccc(C(=O)Nc2c(Br)cc(C(F)(C(F)(F)F)C(F)(F)F)cc2C(F)(F)F)c1 [7-286]
≥ 70%: pest or weed control at 1 ppm (Plutella xylostella) | pest or weed control at 100 ppm (Laodelphax striatellus) | pest or weed control at 1 ppm (Spodoptera litura)

CN(C(=O)c1cccc(C#N)c1)c1cccc(C(=O)Nc2c(Br)cc(C(F)(C(F)(F)F)C(F)(F)F)cc2C(F)(F)F)c1 [7-288]
≥ 70%: pest or weed control at 1 ppm (Plutella xylostella) | pest or weed control at 100 ppm (Laodelphax striatellus) | pest or weed control at 1 ppm (Spodoptera litura)

CN(C(=O)c1ccc(C#N)cc1)c1cccc(C(=O)Nc2c(Br)cc(C(F)(C(F)(F)F)C(F)(F)F)cc2C(F)(F)F)c1 [7-289]
≥ 70%: pest or weed control at 1 ppm (Plutella xylostella) | pest or weed control at 100 ppm (Laodelphax striatellus) | pest or weed control at 1 ppm (Spodoptera litura)

CN(C(=O)c1ccc(C#N)cc1Cl)c1cccc(C(=O)Nc2c(Br)cc(C(F)(C(F)(F)F)C(F)(F)F)cc2C(F)(F)F)c1 [7-301]
≥ 70%: pest or weed control at 1 ppm (Plutella xylostella) | pest or weed control at 100 ppm (Laodelphax striatellus) | pest or weed control at 1 ppm (Spodoptera litura)
